From patent US20220289758A1, “7-OXA-3,4-DIAZABICYCLO [4.1.0] HEPT-4-EN-2-ONE COMPOUND AND HERBICIDE” (Nippon Soda Co., Ltd., priority 2019, published 2022)

Legend:
Abutilon theophrasti = assay: Foliar spraying treatment, weed killing rate; assay type: in vivo; details: 504 h, read-out: herbicidal activity; for pest or weed control at 1000 g/ha: foliar spray, 1,000 g per hectare, after 3 weeks (Table 4); for pest or weed control at 250 g/ha: foliar spray, 250 g per hectare, after 3 weeks (Table 5)
Description: (§1) (1) Preparation of Test Emulsion
(§2) POA allylphenyl ether (4.1 parts by weight), POE-POP glycol (1 part by weight), POE sorbitan laurate (0.8 parts by weight), glycerin (2.6 parts by weight), dimethylformamide (65.9 parts by weight), N-methylpyrrolidone (5.1 parts by weight), cyclohexanone (15.4 parts by weight), and aromatic hydrocarbons (5.1 parts by weight) were mixed and dissolved to prepare an emulsion. The compound of the present invention (4 mg) was dissolved in this emulsion (100 μL) to prepare a test emulsion. POA means “polyoxyalkylene”, POE means “polyoxyethylene”, and POP means “polyoxypropylene”.
(§3) (2) Foliar Spraying Treatment
(§4) A 150 cm^2 pot was filled with soil, and seeds of Avena sativa, Matricaria chamomilla, Setaria faberi, Digitaria ciliaris, Abutilon theophrasti and Amaranthus retroflexus were sown into the surface layer which was covered lightly with soil. Thereafter, they were grown in a greenhouse. When each plant grew to a plant height of 2 to 4 cm, the above test emulsion was diluted so that the amount of the active ingredient became a predetermined amount, and sprayed on the foliage with a small sprayer at a spray water volume of 250 L per hectare.
(§5) After 3 weeks, above ground weights of weeds in the untreated and treated areas were measured for each weed, and the weed killing rate was calculated by the following calculation formula.
(§6) (4) Calculation Formula for Weed Killing Rate
(§7) Weed killing rate (%)=[(above ground weight of weeds in untreated area)−(above ground weight of weeds in treated area)/(above ground weight of weeds in untreated area)]×100

Amaranthus retroflexus = assay: Foliar spraying treatment, weed killing rate; assay type: in vivo; details: 504 h, read-out: herbicidal activity; for pest or weed control at 1000 g/ha: foliar spray, 1,000 g per hectare, after 3 weeks (Table 14); for pest or weed control at 250 g/ha: foliar spray, 250 g per hectare, after 3 weeks (Table 15)
Description: as §1, §2, §3, §4, §5, §6, §7

Digitaria ciliaris = assay: Foliar spraying treatment, weed killing rate; assay type: in vivo; details: 504 h, read-out: herbicidal activity; for pest or weed control at 1000 g/ha: foliar spray, 1,000 g per hectare, after 3 weeks (Table 12); for pest or weed control at 250 g/ha: foliar spray, 250 g per hectare, after 3 weeks (Table 13)
Description: as §1, §2, §3, §4, §5, §6, §7

Matricaria chamomilla = assay: Foliar spraying treatment, weed killing rate; assay type: in vivo; details: 504 h, read-out: herbicidal activity; for pest or weed control at 1000 g/ha: foliar spray, 1,000 g per hectare, after 3 weeks (Table 6); for pest or weed control at 250 g/ha: foliar spray, 250 g per hectare, after 3 weeks (Table 7)
Description: as §1, §2, §3, §4, §5, §6, §7

Setaria faberi = assay: Foliar spraying treatment, weed killing rate; assay type: in vivo; details: 504 h, read-out: herbicidal activity; for pest or weed control at 250 g/ha: foliar spray, 250 g per hectare, after 3 weeks (Table 11); for pest or weed control at 1000 g/ha: foliar spray, 1,000 g per hectare, after 3 weeks (Table 10)
Description: as §1, §2, §3, §4, §5, §6, §7

SMILES	melting point	pest or weed control at 1000 g/ha (Abutilon theophrasti)	pest or weed control at 1000 g/ha (Amaranthus retroflexus)	pest or weed control at 1000 g/ha (Digitaria ciliaris)	pest or weed control at 1000 g/ha (Matricaria chamomilla)	pest or weed control at 250 g/ha (Setaria faberi)	pest or weed control at 250 g/ha (Abutilon theophrasti)	pest or weed control at 250 g/ha (Amaranthus retroflexus)	pest or weed control at 250 g/ha (Digitaria ciliaris)	pest or weed control at 250 g/ha (Matricaria chamomilla)	pest or weed control at 1000 g/ha (Setaria faberi)
COC12OC1(c1ccc3c(c1C)S(=O)(=O)CCC3(C)C)C=NN(C)C2=O (centres unmarked) [Compound B-12]		≥ 80%	≥ 80%	≥ 80%	≥ 80%						
CN1N=CC2(c3ccc(C(F)(F)F)c4c3CCCS4(=O)=O)OC2(OCc2ccn(CC(F)(F)F)n2)C1=O (centres unmarked) [Compound B-3]	112 to 117 °C					≥ 80%	≥ 80%	≥ 80%			
COC12OC1(c1cc3c(cc1S(C)(=O)=O)CCC3)C=NN(C)C2=O (centres unmarked) [Compound B-6]	150 to 153 °C	≥ 80%	≥ 80%	≥ 80%	≥ 80%		≥ 80%	≥ 80%	≥ 80%	≥ 80%	
COC12OC1(c1ccc(C(F)(F)F)c3c1CCCS3(=O)=O)C=NN(C)C2=O (centres unmarked) [Compound B-1, 1-methoxy-3-methyl-6-(1,1-dioxido-8-(trifluoromethyl)thiochroman-5-yl)-7-oxa-3,4-diazabicyclo [4.1.0] hept-4-en-2-one]		≥ 80%	≥ 80%	≥ 80%	≥ 80%	≥ 80%	≥ 80%	≥ 80%	≥ 80%	≥ 80%	≥ 80%
COC12OC1(c1ccc(C(F)(F)F)c3c1OCCS3(=O)=O)C=NN(C)C2=O (centres unmarked) [Compound B-13]		≥ 80%	≥ 80%	≥ 80%	≥ 80%		≥ 80%	≥ 80%		≥ 80%	
COC12OC1(c1ccc(C(F)(F)F)c3c1CCCCS3(=O)=O)C=NN(C)C2=O (centres unmarked) [Compound B-9]		≥ 80%	≥ 80%	≥ 80%	≥ 80%	≥ 80%	≥ 80%	≥ 80%	≥ 80%	≥ 80%	≥ 80%
CN1N=CC2(c3ccc(C(F)(F)F)c4c3CCCS4(=O)=O)OC2(OCCON2C(=O)c3ccccc3C2=O)C1=O (centres unmarked) [Compound B-2]						≥ 80%	≥ 80%	≥ 80%	≥ 80%	≥ 80%	
COC12OC1(c1ccc(C(F)(F)F)c(S(C)(=O)=Nc3ccc(Cl)cc3)c1C)C=NN(C)C2=O (centres unmarked) [Compound B-15]						≥ 80%	≥ 80%	≥ 80%	≥ 80%	≥ 80%	
COC12OC1(c1cc(C)c3c(c1C)C1(CCS3(=O)=O)OCCO1)C=NN(C)C2=O (centres unmarked) [Compound B-11]		≥ 80%	≥ 80%	≥ 80%	≥ 80%		≥ 80%	≥ 80%	≥ 80%		≥ 80%

Further lines, with some results ahead:

melting point	SMILES	pest or weed control at 1000 g/ha (Abutilon theophrasti)	pest or weed control at 1000 g/ha (Amaranthus retroflexus)	pest or weed control at 1000 g/ha (Digitaria ciliaris)	pest or weed control at 1000 g/ha (Matricaria chamomilla)	pest or weed control at 250 g/ha (Setaria faberi)	pest or weed control at 250 g/ha (Abutilon theophrasti)	pest or weed control at 250 g/ha (Amaranthus retroflexus)	pest or weed control at 250 g/ha (Digitaria ciliaris)	pest or weed control at 250 g/ha (Matricaria chamomilla)	pest or weed control at 1000 g/ha (Setaria faberi)
158 to 161 °C	COC12OC1(c1ccc(C(F)(F)F)c(N=S3(=O)CCCCC3)c1Cl)C=NN(C)C2=O (centres unmarked) [Compound B-4]					≥ 80%					
128 °C	COC12OC1(c1ccc(C(F)(F)F)cc1S(C)(=O)=O)C=NN(C)C2=O (centres unmarked) [Compound A-1, 1-methoxy-3-methyl-6-(2-(methylsulfonyl)-4-(trifluoromethyl)phenyl)-7-oxa-3,4-diazabicyclo [4.1.0] hept-4-en-2-one]	≥ 80%	≥ 80%	≥ 80%	≥ 80%	≥ 80%	≥ 80%	≥ 80%	≥ 80%	≥ 80%	≥ 80%
153 to 155 °C	COC12OC1(c1ccc(C(F)(F)F)c3c1CCCO3)C=NN(C)C2=O (centres unmarked) [Compound B-8]	≥ 80%	≥ 80%					≥ 80%			
179 to 181 °C	COC12OC1(c1cccc3c1CCCS3(=O)=O)C=NN(C)C2=O (centres unmarked) [Compound B-7]	≥ 80%	≥ 80%	≥ 80%	≥ 80%					≥ 80%	≥ 80%
172 to 177 °C	COC12OC1(c1ccc(C(F)(F)F)c3c1CCS3(=O)=O)C=NN(C)C2=O (centres unmarked) [Compound B-10]	≥ 80%	≥ 80%		≥ 80%		≥ 80%	≥ 80%		≥ 80%	
205 to 206 °C	COC12OC1(c1cc(F)c(C(F)(F)F)c3c1CCCS3(=O)=O)C=NN(C)C2=O (centres unmarked) [Compound B-16]	≥ 80%	≥ 80%	≥ 80%	≥ 80%						≥ 80%
65 to 66 °C	COC12OC1(c1ccc(C(F)(F)F)cc1S(C)(=O)=O)C=NN(C1CCCCO1)C2=O (centres unmarked) [Compound B-14]		≥ 80%	≥ 80%				≥ 80%			≥ 80%
132 to 134 °C	COC12OC1(c1ccc(C(F)(F)F)c3c1S(=O)(=O)CCC3)C=NN(C)C2=O (centres unmarked) [Compound B-5]					≥ 80%	≥ 80%	≥ 80%	≥ 80%	≥ 80%	
